Measured values taken from article PMC11696576, “Next generation thiazolyl ketone inhibitors of cytosolic phospholipase A2 α for targeted cancer therapy” (Nature Communications, 2025).
Where “and” joins values, the source holds several entries; their conditions need not be identical. Identical values can stand only once.

Tests used:
recombinant human cPLA2α = biological target: T1, recombinant human cPLA2α (Homo sapiens, UniProt P47712); parameters: method as in PMID 25152071; conditions: previously published data ref 19, cited from earlier work
T1 sequence (P47712 1-749): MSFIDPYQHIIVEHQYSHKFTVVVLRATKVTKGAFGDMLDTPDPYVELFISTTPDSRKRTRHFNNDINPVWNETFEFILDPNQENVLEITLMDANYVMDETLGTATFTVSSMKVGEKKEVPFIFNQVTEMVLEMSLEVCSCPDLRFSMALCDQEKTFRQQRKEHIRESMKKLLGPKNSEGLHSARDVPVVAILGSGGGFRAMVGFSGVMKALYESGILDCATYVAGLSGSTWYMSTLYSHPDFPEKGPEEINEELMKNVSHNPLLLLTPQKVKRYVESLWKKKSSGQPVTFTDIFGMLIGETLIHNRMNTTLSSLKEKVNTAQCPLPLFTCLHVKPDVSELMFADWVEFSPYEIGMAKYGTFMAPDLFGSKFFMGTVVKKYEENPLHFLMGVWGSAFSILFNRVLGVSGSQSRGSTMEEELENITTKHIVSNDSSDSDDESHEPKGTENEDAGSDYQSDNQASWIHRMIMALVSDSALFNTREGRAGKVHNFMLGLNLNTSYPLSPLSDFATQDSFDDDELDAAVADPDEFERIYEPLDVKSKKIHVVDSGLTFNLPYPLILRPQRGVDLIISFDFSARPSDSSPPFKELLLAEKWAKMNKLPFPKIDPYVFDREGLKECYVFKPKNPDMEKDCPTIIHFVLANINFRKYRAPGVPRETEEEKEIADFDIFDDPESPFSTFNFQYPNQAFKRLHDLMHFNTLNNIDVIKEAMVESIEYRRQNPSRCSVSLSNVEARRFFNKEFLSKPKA

CD3+ T-cells = experiment: viability of healthy T-cells, propidium iodide exclusion; assay type: cell-based
Method: (§1) Data are the mean ± stdev of 3 biological replicates. […] Data are the mean ± stdev of 3 biological replicates.
Propidium iodide exclusion was used to assess cell death by flow cytometry. After treatment, the cells were washed once with PBS and stained with 1.4 μg/mL propidium iodide (PI) for 5 min before quantification of PI negative and positive cells using a CytoFLEX flow cytometer (California, United States). An example of the gating strategy to assess PI staining can be found in Fig. S8c. […]
The propidium iodide exclusion assay was used to assess vi-ability of ungated PBMCs treated with AVX420 at the indicated doses for 24 hours .
Data are the mean ±stdev from 8 biological replicates (1-16 µM) and 5 biological rep- […]
iodide exclusion in CD3+ lymphocytes (T-cells). Cells appearing in the bottom right quadrant are PI-negative (live) T-cells while cells in the top right quadrant are PI-posi- […]
(§2) (1 picture or pasted object on this page, not shown here)

CCRF-CEM cells = experiment: intracellular ROS, ROS-red staining and flow cytometry, CCRF-CEM; assay type: cell-based, human; parameters: ROS Negative Cells: unit not given here; conditions: for ROS Negative Cells / ROS Positive Cells: listed as AVX420
Method: as §1
Rather, when combined with AVX420, exogenous AA augmented cell death (Fig. 6e). […] The response occurred within 1 h, peaked at 8–12 h, and preceded the loss of cell viability (Fig. S9a, b).
After treatment, cells were stained with cellular ROS Assay Kit (Cat. No. ab186029; Abcam, Cambridge, United Kingdom) following the manufacturer’s instructions, and ROS-positive cells were quantified by flow cytometry using either the NovoCyte flow cytometer, and Novoexpress Software v1.5.0 from Agilent Technologies (Santa Clara, USA) or the CytoFLEX flow cytometer and CytExpert analysis software v 2.5 from Beckman Coulter (California, United States). An example showing the gating strategy used to assess ROS-Red staining is found in Fig. S9d.
Figure S9. Intracellular ROS accumulation and cell death. a. Time dependency of the in-crease in iROS following treatment with AVX420 in CCRF-CEM cells as measured by ROS-red stain-ing. Data are the mean ±stdev from ≥2 biological replicates b. […]
±stdev of ≥2 biological replicates c. intracellular ROS measurements in CCRF-CEM cells treated with 0.5 µM AVX420 in the presence of 20 µM arachidonic acid (AA) or 5 µM liproxstatin (Lip) for 4 hours. Data are the mean ± stdev of 2 biological replicates. d. […]
analysis of ROS Red staining by flow cytometry. (i) Gating of live cells using FSC-H versus SSC-H.
(ii) Gating based on ROS Deep Red staining under control conditions and after treatment with (iii) […]
as §2

HL-60 cells = experiment: cell viability, resazurin assay, HL-60; assay type: cell-based, human; conditions: for cell viability relative to 0 µM = 100 (Figure S7b): listed as AVX420
Excerpt: Bjørn Tore Gjertsen (University of Bergen, Norway). […] The cell lines were not authenticated.
Figure S7. Sensitivity of cell lines derived from hematological malignancies. a. cell viability expressed as relative light units ( RLU) is plotted for all cell lines in the screen that were de-rived from hematological malignancies. b. corresponding IC50 values calculated by non-linear regression analysis. c. Cell viability assessed by resazurin assays in MV-4-11 and HL-60 cells.
Data were normalized to the vehicle-treated control (100%) and are the mean of 4 biological replicates ±stdev (MV-4-11) and 5 biological replicates ±stdev (HL-60), Non-linear regres- […]

[1] = Figure 6c, 32 µM, listed as AVX420

CCCCCCCCc1ccc(OCC(=O)c2nc(C(=O)OC)cs2)cc1 [GK470]
cPLA2α % Inhib (recombinant human cPLA2α; 0.091 mole fraction): >90%
cPLA2α XI(50) (recombinant human cPLA2α; XI(50) ± stdev): 0.011 ± 0.005 mole fraction

CCCCCCCOc1ccc(OCC(=O)c2nc(C(=O)OC)cs2)cc1 [GK420]
PI Negative (CD3+ T-cells; Figure 6c, 2 µM, listed as AVX420): 96 and 98 and 95 and 91 and 89 and 97
PI Negative (CD3+ T-cells; Figure 6c, 8 µM, listed as AVX420): 96 and 98 and 94 and 90 and 87 and 95 and 93
PI Negative (CD3+ T-cells; Figure 6c, 16 µM, listed as AVX420): 96 and 98 and 94 and 90 and 84 and 91
PI Negative (CD3+ T-cells; [1]): 92 and 94 and 89 and 91 and 90
PI Positive (CD3+ T-cells; [1]): 6 and 11 and 9 and 10 and 8
effect on healthy CD3+ T-cells (CD3+ T-cells; up to a maximum dose tested of 32 µM): no effect
time of iROS peak (CCRF-CEM cells; CCRF-CEM (Fig. S9a)): 8 to 12 h
time to iROS response (CCRF-CEM cells; CCRF-CEM (Fig. S9a)): ≤ 1 h
ROS Negative Cells (CCRF-CEM cells; CCRF-CEM, 0.25 µM): 70 and 65 and 71 and 61
ROS Positive Cells (CCRF-CEM cells; CCRF-CEM, 0.25 µM): 39 and 30 and 35 and 29
ROS Negative Cells (CCRF-CEM cells; CCRF-CEM, 0.5 µM): 34 and 29 and 30 and 32 and 33
ROS Positive Cells (CCRF-CEM cells; CCRF-CEM, 0.5 µM): 70 and 68 and 67 and 66 and 71
ROS Negative Cells (CCRF-CEM cells; CCRF-CEM, 1 µM): 13 and 15 and 12 and 11
ROS Positive Cells (CCRF-CEM cells; CCRF-CEM, 1 µM): 89 and 87 and 85 and 88
ROS Negative Cells (CCRF-CEM cells; CCRF-CEM, 2 µM): 8 and 6 and 9 and 10
ROS Positive Cells (CCRF-CEM cells; CCRF-CEM, 2 µM): 90 and 92 and 94 and 91
intracellular ROS (iROS) (CCRF-CEM cells; CCRF-CEM, 4 h): dose-dependent increase
cell viability relative to 0 µM = 100 (Figure S7b) (HL-60 cells; HL-60, 1 µM, rep1-5): 97.3013 and 90.6778 and 115.865 and 99.353 and 90.3923
cell viability relative to 0 µM = 100 (Figure S7b) (HL-60 cells; HL-60, 3 µM, rep1-5): 90.5903 and 85.7617 and 98.8696 and 77.2301 and 87.8872
cell viability relative to 0 µM = 100 (Figure S7b) (HL-60 cells; HL-60, 5 µM, rep1-5): 71.3359 and 44.5692 and 65.87 and 61.5884 and 62.96
cell viability relative to 0 µM = 100 (Figure S7b) (HL-60 cells; HL-60, 7 µM, rep1-5): 63.2164 and 43.3688 and 54.7108 and 42.3668 and 54.7116
cell viability relative to 0 µM = 100 (Figure S7b) (HL-60 cells; HL-60, 10 µM, rep1-5): 36.7957 and 43.3263 and 38.5629 and 49.5907
cell viability relative to 0 µM = 100 (Figure S7b) (HL-60 cells; HL-60, 12 µM, rep1-5): 32.4548 and 37.5058 and 42.0594 and 45.299
cell viability relative to 0 µM = 100 (Figure S7b) (HL-60 cells; HL-60, 15 µM, rep1-5): 31.4644 and 36.8417 and 35.3195 and 49.7069
cell viability relative to 0 µM = 100 (Figure S7b) (HL-60 cells; HL-60, 20 µM, rep1-5): 29.4668 and 34.076 and 29.9279 and 43.7902
viability at 10 µM (HL-60 cells; Homo sapiens, HL-60, HL-60, 10 µM, rep1-5, read-out: cell viability relative to 0 µM = 100 (Figure S7b)): 49.4%
viability at 12 µM (HL-60 cells; Homo sapiens, HL-60, HL-60, 12 µM, rep1-5, read-out: cell viability relative to 0 µM = 100 (Figure S7b)): 45.2%
viability at 15 µM (HL-60 cells; Homo sapiens, HL-60, HL-60, 15 µM, rep1-5, read-out: cell viability relative to 0 µM = 100 (Figure S7b)): 42.5%
viability at 20 µM (HL-60 cells; Homo sapiens, HL-60, HL-60, 20 µM, rep1-5, read-out: cell viability relative to 0 µM = 100 (Figure S7b)): 36.3%
IC50 (HL-60 cells; Homo sapiens, HL-60, resazurin assay): 4.6 µM
